Target: T1, human NaPi-IIb (Homo sapiens, UniProt O95436)
T1 construct: expressed in transfected cells
T1 sequence (O95436 1-690): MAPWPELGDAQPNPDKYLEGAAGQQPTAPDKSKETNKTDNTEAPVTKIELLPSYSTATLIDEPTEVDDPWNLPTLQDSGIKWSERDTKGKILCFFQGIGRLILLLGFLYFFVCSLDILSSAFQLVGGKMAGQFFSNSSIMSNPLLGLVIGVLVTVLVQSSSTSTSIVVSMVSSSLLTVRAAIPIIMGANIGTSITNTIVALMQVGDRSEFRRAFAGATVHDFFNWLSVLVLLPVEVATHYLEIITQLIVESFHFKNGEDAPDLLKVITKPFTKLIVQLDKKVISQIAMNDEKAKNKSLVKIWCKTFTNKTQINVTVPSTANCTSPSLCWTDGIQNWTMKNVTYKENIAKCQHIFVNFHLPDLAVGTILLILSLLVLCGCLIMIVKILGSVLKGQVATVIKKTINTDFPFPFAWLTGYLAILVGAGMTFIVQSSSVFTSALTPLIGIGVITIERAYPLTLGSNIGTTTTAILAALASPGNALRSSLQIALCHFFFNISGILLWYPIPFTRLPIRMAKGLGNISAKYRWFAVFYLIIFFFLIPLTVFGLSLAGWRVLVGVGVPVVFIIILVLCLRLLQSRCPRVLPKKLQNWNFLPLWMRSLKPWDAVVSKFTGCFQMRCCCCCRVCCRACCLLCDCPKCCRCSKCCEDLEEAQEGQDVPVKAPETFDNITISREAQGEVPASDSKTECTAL
Experiment: Inhibitory effect on 33PO4 uptake into human NaPi-IIb-expressing CHO cells
Type: cell-based
Details: read-out: IC50
Protocol: Test Example 2: Inhibitory Effect on PO4 Uptake into Human NaPi-IIb-Expressing Cell CHO cells were transfected with human NaPi-IIb expression plasmids, and a stably human NaPi-IIb-expressing cell line was obtained using G418. The human NaPi-IIb-expressing cells were inoculated to a 96-well plate and incubated overnight in a CO2 incubator. […] After a given time, a 1/20 volume of buffer A containing ^33PO4 was added thereto and reacted at room temperature. After washing with ice-cold buffer A, a liquid scintillator was added to each reaction mixture, and the amount of ^33PO4 uptake was measured using TopCount.

Compound | IC50 [µM]
CSc1ccc(-c2nc(C(F)(F)F)ccc2NC(=O)C2=C(O)[C@@]3(C)CCCN3N(Cc3cccc(F)c3F)C2=O)cn1 [Example 105] | 6.3
C[C@]12CCCN1N(Cc1ccc(OCCN3CCOCC3)c(F)c1F)C(=O)C(C(=O)Nc1ccc(C(F)(F)F)nc1-c1cncc(C(F)(F)F)c1)=C2O [Example 106] | 12
C[C@@]12CCCN1N(Cc1ccc(OCCN3CCOCC3)c(F)c1F)C(=O)C(C(=O)Nc1ccc(Cl)cc1-c1cc(C(F)(F)F)ncn1)=C2O [Example 107] | 25.9
C[C@@]12CCCN1N(Cc1ccc(OCCN3CCOCC3)c(F)c1F)C(=O)C(C(=O)Nc1ccc(C(F)(F)F)cc1-c1cc(C(F)(F)F)ncn1)=C2O [Example 108] | 26.1
Cc1ncc(-c2cc(C(F)(F)F)ccc2NC(=O)C2=C(O)[C@@]3(C)CCCN3N(Cc3cccc(F)c3F)C2=O)cc1C#N [Example 109, (4aR)—N-[2-(5-Cyano-6-methylpyridin-3-yl)-4-(trifluoromethyl)phenyl]-1-[(2,3-difluorophenyl)methyl]-4-hydroxy-4a-methyl-2-oxo-6,7-dihydro-5H-pyrrolo[1,2-b]pyridazine-3-carboxamide] | 9.4
C[C@]12CCCN1N(Cc1cccc(F)c1F)C(=O)C(C(=O)Nc1ccc(C(F)(F)F)cc1-c1cnc(N3CC4(COC4)C3)c(C#N)c1)=C2O [Example 111, (4aR)—N-[2-[5-Cyano-6-(2-oxa-6-azaspiro[3.3]heptan-6-yl)pyridin-3-yl]-4-(trifluoromethyl)phenyl]-1-[(2,3-difluorophenyl)methyl]-4-hydroxy-4a-methyl-2-oxo-6,7-dihydro-5H-pyrrolo[1,2-b]pyridazine-3-carboxamide] | 20
CSc1cc(-c2cc(C(F)(F)F)ccc2NC(=O)C2=C(O)[C@@]3(C)CCCN3N(Cc3cccc(F)c3F)C2=O)cnc1C#N [Example 113, (4aR)—N-[2-(6-Cyano-5-methylsulfanylpyridin-3-yl)-4-(trifluoromethyl)phenyl]-1-[(2,3-difluorophenyl)methyl]-4-hydroxy-4a-methyl-2-oxo-6,7-dihydro-5H-pyrrolo[1,2-b]pyridazine-3-carboxamide] | 15.5
COc1cc(-c2cc(C(F)(F)F)ccc2NC(=O)C2=C(O)[C@@]3(C)CCCN3N(Cc3cccc(F)c3F)C2=O)cnc1C#N [Example 114, (4aR)—N-[2-(6-Cyano-5-methoxypyridin-3-yl)-4-(trifluoromethyl)phenyl]-1-[(2,3-difluorophenyl)methyl]-4-hydroxy-4a-methyl-2-oxo-6,7-dihydro-5H-pyrrolo[1,2-b]pyridazine-3-carboxamide] | 7.9
CSc1ccc(-c2cc(C(F)(F)F)ccc2NC(=O)C2=C(O)[C@@]3(C)CCCN3N(Cc3ccc(CCCCCCC(=O)O)c(F)c3F)C2=O)cn1 [Example 115, 7-[4-[[(4aR)-4-Hydroxy-4a-methyl-3-[[2-(6-methylsulfanylpyridin-3-v1)-4-(trifluoromethyl)phenyl]carbamoyl]-2-oxo-6,7-dihydro-5H-pyrrolo[1,2-b]pyridazin-1-yl]methyl]-2,3-difluorophenyl]heptanoate] | 6.9
C[C@]12CCCN1N(Cc1ccc(CCCCCCC(=O)O)c(F)c1F)C(=O)C(C(=O)Nc1ccc(Cl)cc1-c1ccc(C(F)(F)F)nc1)=C2O [Example 116, 7-[4-[[(4aR)-3-[[4-Chloro-2-[6-(trifluoromethyl)pyridin-3-yl]phenyl]carbamoyl]-4-hydroxy-4a-methyl-2-oxo-6,7-dihydro-5H-pyrrolo[1,2-b]pyridazin-1-yl]methyl]-2,3-difluorophenyl]heptanoate] | 8.1
CSc1ccc(-c2cc(C(F)(F)F)ccc2NC(=O)C2=C(O)[C@@]3(C)CCCN3N(Cc3ccc(C#CCCCCC(=O)O)c(F)c3F)C2=O)cn1 [Example 117, 7-[4-[[(4aR)-4-Hydroxy-4a-methyl-3-[[2-(6-methylsulfanylpyridin-3-yl)-4-(trifluoromethyl)phenyl]carbamoyl]-2-oxo-6,7-dihydro-5H-pyrrolo[1,2-b]pyridazin-1-yl]methyl]-2,3-difluorophenyl]hept-6-ynoate] | 9.5
CSc1ncc(-c2cc(C(F)(F)F)ccc2NC(=O)C2=C(O)[C@@]3(C)CCCN3N(Cc3ccc(C#CCCCCC(=O)O)c(F)c3F)C2=O)cn1 [Example 118, 7-[4-[[(4aR)-4-Hydroxy-4a-methyl-3-[[2-(2-methylsulfanylpyrimidin-5-yl)-4-(trifluoromethyl)phenyl]carbamoyl]-2-oxo-6,7-dihydro-5H-pyrrolo[1,2-b]pyridazin-1-yl]methyl]-2,3-difluorophenyl]hept-6-ynoate] | 9.1
C[C@]12CCCN1N(Cc1ccc(C#CCCCCC(=O)O)c(F)c1F)C(=O)C(C(=O)Nc1ccc(C(F)(F)F)cc1-c1cncc(C(F)(F)F)c1)=C2O [Example 119, 7-[4-[[(4aR)-4-Hydroxy-4a-methyl-2-oxo-3-[[4-(trifluoromethyl)-2-[5-(trifluoromethyl)pyridin-3-yl]phenyl]carbamoyl]-6,7-dihydro-5H-pyrrolo[1,2-b]pyridazin-1-yl]methyl]-2,3-difluorophenyl]hept-6-ynoate] | 9.2
CSc1ccc(-c2cc(C(F)(F)F)ccc2NC(=O)C2=C(O)[C@@]3(C)CCCN3N(Cc3ccc(OCCCCOC[C@H](O)CO)c(F)c3F)C2=O)cn1 [Example 120, (4aR)-1-[[4-[4-[(2R)-2,3-Dihydroxypropoxy]butoxy]-2,3-difluorophenyl]methyl]-4-hydroxy-4a-methyl-N-[2-(6-methylsulfanylpyridin-3-v1)-4-(trifluoromethyl)phenyl]-2-oxo-6,7-dihydro-5H-pyrrolo[1,2-b]pyridazine-3-carboxamide] | 20.5
C[C@]12CCCN1N(Cc1ccc(OCCCCOC[C@H](O)CO)c(F)c1F)C(=O)C(C(=O)Nc1ccc(Cl)cc1-c1ccc(C(F)(F)F)nc1)=C2O [Example 121, (4aR)—N-[4-Chloro-2-[6-(trifluoromethyl)pyridin-3-yl]phenyl]-1-[[4-[4-[(2R)-2,3-dihydroxypropoxy]butoxy]-2,3-difluorophenyl]methyl]-4-hydroxy-4a-methyl-2-oxo-6,7-dihydro-5H-pyrrolo[1,2-b]pyridazine-3-carboxamide] | 16
C[C@]12CCCN1N(Cc1cccc(F)c1F)C(=O)C(C(=O)Nc1ccc(Br)cc1-c1ccc(Cl)nc1)=C2O [Example 122, (4aR)—N-[4-Bromo-2-(6-chloropyridin-3-yl)phenyl]-1-[(2,3-difluorophenyl)methyl]-4-hydroxy-4a-methyl-2-oxo-6,7-dihydro-5H-pyrrolo[1,2-b]pyridazine-3-carboxamide] | 8.6
COc1cccc(-c2cc(C(F)(F)F)ccc2NC(=O)C2=C(O)[C@@]3(C)CCCN3N(Cc3ccc(C#CCOCCCCO)c(F)c3F)C2=O)c1OC [Example 123, (4aR)-1-[[2,3-Difluoro-4-[3-(4-hydroxybutoxy)prop-1-ynil]phenyl]methyl]-N-[2-(2,3-dimethoxyphenyl)-4-(trifluoromethyl)phenyl]-4-hydroxy-4a-methyl-2-oxo-6,7-dihydro-5H-pyrrolo[1,2-b]pyridazine-3-carboxamide] | 14.8

From patent US9499553B2 (CHUGAI SEIYAKU KABUSHIKI KAISHA, priority 2013, dated 2016)
